Experimental data: PubChem BioAssay (NCI)
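Five compound concentrations were applied to cells in 96-well plates for 48 hours; endpoints were derived by simple linear interpolation of the resulting dose-response curve. TGI marks complete inhibition of growth.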

Experiments:
Experiment in all cases: inhibition of tumour cell growth, NCI panel, 48 h
786-0 renal = test system: 786-0 renal
COLO 205 colon = test system: COLO 205 colon
HOP-62 NSCLC = test system: HOP-62 NSCLC
HS 578T breast = test system: HS 578T breast
MOLT-4 leukemia = test system: MOLT-4 leukemia
NCI-H23 lung = test system: NCI-H23 lung
NCI-H522 lung = test system: NCI-H522 lung
OVCAR-5 ovarian = test system: OVCAR-5 ovarian
SF-539 CNS = test system: SF-539 CNS
SW-620 colon = test system: SW-620 colon
U251 CNS = test system: U251 CNS
UACC-62 melanoma = test system: UACC-62 melanoma

## Oc1ccccc1C(c1cc2c(cc1O)OCO2)N1CCOCC1 (stereo not drawn)
786-0 renal
  TGI: 22.6 µM
COLO 205 colon
  TGI: 34.8 µM
HOP-62 NSCLC
  TGI: > 100 µM
HS 578T breast
  TGI: 56.4 µM
MOLT-4 leukemia
  TGI: 40.6 µM
NCI-H23 lung
  TGI: 46.6 µM
NCI-H522 lung
  TGI: 24.3 µM
OVCAR-5 ovarian
  TGI: 57.8 µM
SF-539 CNS
  TGI: 39.2 µM
SW-620 colon
  TGI: 70.8 µM
U251 CNS
  TGI: 30.2 µM
UACC-62 melanoma
  TGI: 32.3 µM

## COc1ccc(Nc2c(C#N)c3n(c4ccccc24)c2ccccc2[n+]3C)cc1OC
786-0 renal
  TGI: 8.77 µM
COLO 205 colon
  TGI: 12 µM
HOP-62 NSCLC
  TGI: 23.6 µM
HS 578T breast
  TGI: 11.3 µM
MOLT-4 leukemia
  TGI: > 29.5 µM
NCI-H23 lung
  TGI: 19.3 µM
NCI-H522 lung
  TGI: 16 µM
OVCAR-5 ovarian
  TGI: 10.4 µM
SF-539 CNS
  TGI: 6.88 µM
SW-620 colon
  TGI: 15.7 µM
U251 CNS
  TGI: 17.9 µM
UACC-62 melanoma
  TGI: 12.5 µM

## COc1ccc2c(c1)c1c(n2CCN2CCOCC2)-c2ccccc2CC1
786-0 renal
  TGI: 92.1 µM
COLO 205 colon
  TGI: 30.8 µM
HOP-62 NSCLC
  TGI: > 100 µM
HS 578T breast
  TGI: 42.8 µM
MOLT-4 leukemia
  TGI: 48 µM
NCI-H23 lung
  TGI: > 100 µM
NCI-H522 lung
  TGI: > 100 µM
OVCAR-5 ovarian
  TGI: > 100 µM
SF-539 CNS
  TGI: 71.3 µM
SW-620 colon
  TGI: > 100 µM
U251 CNS
  TGI: > 100 µM
UACC-62 melanoma
  TGI: > 100 µM

## Cc1c(/C=N\NC(=S)N2CCN(C(=S)N/N=C\c3c(C)n(C)n(-c4ccccc4)c3=O)CC2)c(=O)n(-c2ccccc2)n1C
786-0 renal
  TGI: > 100 µM
COLO 205 colon
  TGI: > 100 µM
HOP-62 NSCLC
  TGI: > 100 µM
HS 578T breast
  TGI: > 100 µM
MOLT-4 leukemia
  TGI: > 100 µM
NCI-H23 lung
  TGI: > 100 µM
NCI-H522 lung
  TGI: > 100 µM
OVCAR-5 ovarian
  TGI: > 100 µM
SF-539 CNS
  TGI: > 100 µM
SW-620 colon
  TGI: > 100 µM
U251 CNS
  TGI: > 100 µM
UACC-62 melanoma
  TGI: > 100 µM

## Nc1nc2ncc(SCc3ccc(C(=O)NC(CCC(=O)O)C(=O)O)cc3)cc2c(=O)[nH]1 (stereo not drawn)
786-0 renal
  TGI: > 100 µM
COLO 205 colon
  TGI: > 100 µM
HOP-62 NSCLC
  TGI: > 100 µM
HS 578T breast
  TGI: > 100 µM
MOLT-4 leukemia
  TGI: > 100 µM
NCI-H23 lung
  TGI: > 100 µM
NCI-H522 lung
  TGI: > 100 µM
OVCAR-5 ovarian
  TGI: > 100 µM
SF-539 CNS
  TGI: > 100 µM
SW-620 colon
  TGI: > 100 µM
U251 CNS
  TGI: > 100 µM
UACC-62 melanoma
  TGI: > 100 µM

## O=c1[nH]cnc2c(C3OC(CO)C(O)C3O)c[nH]c12 (stereo not drawn)
786-0 renal
  TGI: > 100 µM
COLO 205 colon
  TGI: > 100 µM
HOP-62 NSCLC
  TGI: > 100 µM
HS 578T breast
  TGI: > 100 µM
MOLT-4 leukemia
  TGI: > 100 µM
NCI-H23 lung
  TGI: > 100 µM
NCI-H522 lung
  TGI: > 100 µM
OVCAR-5 ovarian
  TGI: > 100 µM
SF-539 CNS
  TGI: > 100 µM
SW-620 colon
  TGI: > 100 µM
U251 CNS
  TGI: > 100 µM
UACC-62 melanoma
  TGI: > 100 µM

## COc1ccc(N2C(=O)C3c4[nH]c5ccc([N+](=O)[O-])cc5c4C4CCC(C(C)(C)C)CC4C3C2=O)cc1 (stereo not drawn)
786-0 renal
  TGI: 38 µM
COLO 205 colon
  TGI: 69.6 µM
HOP-62 NSCLC
  TGI: 78.8 µM
HS 578T breast
  TGI: > 100 µM
MOLT-4 leukemia
  TGI: > 100 µM
NCI-H23 lung
  TGI: 60.4 µM
NCI-H522 lung
  TGI: > 100 µM
OVCAR-5 ovarian
  TGI: > 100 µM
SF-539 CNS
  TGI: > 100 µM
SW-620 colon
  TGI: > 100 µM
U251 CNS
  TGI: 90.7 µM
UACC-62 melanoma
  TGI: > 100 µM

## Clc1cc(N/N=C(/c2ccccc2)c2ncccn2)ncn1
786-0 renal
  TGI: 79.3 µM
COLO 205 colon
  TGI: 22.8 µM
HOP-62 NSCLC
  TGI: 59.3 µM
HS 578T breast
  TGI: 66.7 µM
MOLT-4 leukemia
  TGI: > 100 µM
NCI-H23 lung
  TGI: 58.3 µM
NCI-H522 lung
  TGI: 5.51 µM
OVCAR-5 ovarian
  TGI: > 100 µM
SF-539 CNS
  TGI: 54.7 µM
SW-620 colon
  TGI: > 100 µM
U251 CNS
  TGI: > 100 µM
UACC-62 melanoma
  TGI: > 100 µM

## CCOC(=O)c1cc2c([N+](=O)[O-])c(NC(C)=O)ccc2s1
786-0 renal
  TGI: > 100 µM
COLO 205 colon
  TGI: > 100 µM
HOP-62 NSCLC
  TGI: > 100 µM
HS 578T breast
  TGI: > 100 µM
MOLT-4 leukemia
  TGI: > 100 µM
NCI-H23 lung
  TGI: > 100 µM
NCI-H522 lung
  TGI: > 100 µM
OVCAR-5 ovarian
  TGI: > 100 µM
SF-539 CNS
  TGI: > 100 µM
SW-620 colon
  TGI: > 100 µM
U251 CNS
  TGI: > 100 µM
UACC-62 melanoma
  TGI: > 100 µM

## C[C@]12OC[C@H](c3ccccc3)N1C(=O)C1[C@H]2CC12SCCS2 (stereo partly drawn)
786-0 renal
  TGI: > 100 µM
COLO 205 colon
  TGI: > 100 µM
HOP-62 NSCLC
  TGI: > 100 µM
HS 578T breast
  TGI: > 100 µM
MOLT-4 leukemia
  TGI: > 100 µM
NCI-H23 lung
  TGI: > 100 µM
NCI-H522 lung
  TGI: > 100 µM
OVCAR-5 ovarian
  TGI: > 100 µM
SF-539 CNS
  TGI: > 100 µM
SW-620 colon
  TGI: > 100 µM
U251 CNS
  TGI: > 100 µM
UACC-62 melanoma
  TGI: > 100 µM

## O=c1[nH]c2nc3ccccc3c(=O)n2/c1=C/c1ccc(O)cc1
786-0 renal
  TGI: > 100 µM
COLO 205 colon
  TGI: > 100 µM
HOP-62 NSCLC
  TGI: > 100 µM
HS 578T breast
  TGI: 69.7 µM
MOLT-4 leukemia
  TGI: > 100 µM
NCI-H23 lung
  TGI: > 100 µM
NCI-H522 lung
  TGI: > 100 µM
OVCAR-5 ovarian
  TGI: > 100 µM
SF-539 CNS
  TGI: 46.6 µM
SW-620 colon
  TGI: 56.4 µM
U251 CNS
  TGI: 83.6 µM
UACC-62 melanoma
  TGI: > 100 µM

## C=CC(=O)c1ccc2c(c1)OCCOCCOCCOCCOCCO2
786-0 renal
  TGI: 31.1 µM
COLO 205 colon
  TGI: 33 µM
HOP-62 NSCLC
  TGI: > 100 µM
HS 578T breast
  TGI: > 100 µM
MOLT-4 leukemia
  TGI: > 100 µM
NCI-H23 lung
  TGI: > 64.2 µM
NCI-H522 lung
  TGI: 24.7 µM
OVCAR-5 ovarian
  TGI: > 100 µM
SF-539 CNS
  TGI: 33.2 µM
SW-620 colon
  TGI: 35.2 µM
U251 CNS
  TGI: > 100 µM
UACC-62 melanoma
  TGI: 92 µM

## C=CCN(CC=C)Cn1c(=S)sc2ccccc21
786-0 renal
  TGI: > 100 µM
COLO 205 colon
  TGI: > 100 µM
HOP-62 NSCLC
  TGI: > 100 µM
HS 578T breast
  TGI: > 100 µM
MOLT-4 leukemia
  TGI: > 100 µM
NCI-H23 lung
  TGI: > 100 µM
NCI-H522 lung
  TGI: 37.7 µM
OVCAR-5 ovarian
  TGI: > 100 µM
SF-539 CNS
  TGI: > 100 µM
SW-620 colon
  TGI: > 100 µM
U251 CNS
  TGI: > 100 µM
UACC-62 melanoma
  TGI: > 100 µM

## Clc1nc(Cl)nc(NC23CC4CC(CC(C4)C2)C3)n1
786-0 renal
  TGI: 31.2 µM
COLO 205 colon
  TGI: 35.5 µM
HOP-62 NSCLC
  TGI: 34.5 µM
HS 578T breast
  TGI: 28.9 µM
MOLT-4 leukemia
  TGI: 51.2 µM
NCI-H23 lung
  TGI: 34.1 µM
NCI-H522 lung
  TGI: 30.9 µM
OVCAR-5 ovarian
  TGI: 39.5 µM
SF-539 CNS
  TGI: 35 µM
SW-620 colon
  TGI: 31.5 µM
U251 CNS
  TGI: 30.5 µM
UACC-62 melanoma
  TGI: 35.1 µM
